Marks after values point to notes of the source that are not given here.
Columns and labels:
[1] = Nitric oxide free radical scavenging activity (sodium nitroprusside); parameters: key to Half Maximal Inhibitory Concentration IC50 NO.: ---: no activity; conditions: for Half Maximal Inhibitory Concentration IC50 NO.: mean ± SD, triplicate; for nitric oxide radical scavenging activity: at the concentrations permitted to evaluate, Figure 3C
Experimental: The essential oil NO scavenging activity was estimated using the protocol described by El Guendouz et al. The inhibition percentage was calculated using the formula: Inhibition = [(A0 − (A1 − A2)/A0 × 100]. The A0 is the absorbance of sodium nitroprusside without sample, A1 and A2 were the absorbance of the sample with and without sodium nitroprusside.

[2] = target: α-glucosidase (Saccharomyces cerevisiae, UniProt P53341); experiment: α-Glucosidase inhibition assay; assay type: biochemical; conditions: mean ± SD, triplicate
α-glucosidase, sequence (P53341 whole entry): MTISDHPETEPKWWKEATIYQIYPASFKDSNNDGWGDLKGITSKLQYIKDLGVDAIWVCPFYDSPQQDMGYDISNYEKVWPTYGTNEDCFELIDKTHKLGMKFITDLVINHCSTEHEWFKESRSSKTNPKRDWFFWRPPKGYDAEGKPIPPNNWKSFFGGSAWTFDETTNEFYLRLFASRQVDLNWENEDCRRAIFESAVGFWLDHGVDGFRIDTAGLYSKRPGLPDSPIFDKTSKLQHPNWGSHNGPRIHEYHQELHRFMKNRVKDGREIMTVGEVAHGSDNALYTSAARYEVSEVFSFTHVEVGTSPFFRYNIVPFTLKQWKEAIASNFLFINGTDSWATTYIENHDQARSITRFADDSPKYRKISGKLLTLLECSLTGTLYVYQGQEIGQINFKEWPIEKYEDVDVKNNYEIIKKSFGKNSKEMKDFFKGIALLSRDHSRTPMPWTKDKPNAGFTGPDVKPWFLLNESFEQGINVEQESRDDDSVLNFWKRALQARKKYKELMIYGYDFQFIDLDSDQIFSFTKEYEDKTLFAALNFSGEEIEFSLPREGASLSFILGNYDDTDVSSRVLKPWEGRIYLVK
Experimental: The α-glucosidase inhibitor capacity of the essential oils was determined as described by El-Guendouz et al. The crease of absorbance was performed at 405 nm. The inhibition percentage of the enzyme was calculated as follows: I% = [(A0 −A1)/A0) × 100]; where A0 is the absorbance of the control and A1 is the absorbance of the sample. The trials were triplicated.

[3] = DPPH free radical-scavenging activity; conditions: mean ± SD, triplicate
Experimental: The radical scavenging capacity was estimated according to Bounatirou et al. using 2,20-diphenylpicrylhydrazyl (DPPH) free radicals. The radical inhibition percentage was calculated with the equation: Inhibition = [(A0 − A1)/A0 × 100]; A0 stands for the absorbance of the control and A1 stands for the absorbance of the sample. […] Tests were carried out in triplicate.

[4] = tested on: S. aureus; parameters: method as in PMID 12485339; conditions: previous study; cited from earlier work
[5] = target: 5-lipoxygenase (Glycine max, UniProt P08170); experiment: Lipoxygenase inhibition assay (linoleic acid substrate); assay type: biochemical
5-lipoxygenase, sequence (P08170 whole entry): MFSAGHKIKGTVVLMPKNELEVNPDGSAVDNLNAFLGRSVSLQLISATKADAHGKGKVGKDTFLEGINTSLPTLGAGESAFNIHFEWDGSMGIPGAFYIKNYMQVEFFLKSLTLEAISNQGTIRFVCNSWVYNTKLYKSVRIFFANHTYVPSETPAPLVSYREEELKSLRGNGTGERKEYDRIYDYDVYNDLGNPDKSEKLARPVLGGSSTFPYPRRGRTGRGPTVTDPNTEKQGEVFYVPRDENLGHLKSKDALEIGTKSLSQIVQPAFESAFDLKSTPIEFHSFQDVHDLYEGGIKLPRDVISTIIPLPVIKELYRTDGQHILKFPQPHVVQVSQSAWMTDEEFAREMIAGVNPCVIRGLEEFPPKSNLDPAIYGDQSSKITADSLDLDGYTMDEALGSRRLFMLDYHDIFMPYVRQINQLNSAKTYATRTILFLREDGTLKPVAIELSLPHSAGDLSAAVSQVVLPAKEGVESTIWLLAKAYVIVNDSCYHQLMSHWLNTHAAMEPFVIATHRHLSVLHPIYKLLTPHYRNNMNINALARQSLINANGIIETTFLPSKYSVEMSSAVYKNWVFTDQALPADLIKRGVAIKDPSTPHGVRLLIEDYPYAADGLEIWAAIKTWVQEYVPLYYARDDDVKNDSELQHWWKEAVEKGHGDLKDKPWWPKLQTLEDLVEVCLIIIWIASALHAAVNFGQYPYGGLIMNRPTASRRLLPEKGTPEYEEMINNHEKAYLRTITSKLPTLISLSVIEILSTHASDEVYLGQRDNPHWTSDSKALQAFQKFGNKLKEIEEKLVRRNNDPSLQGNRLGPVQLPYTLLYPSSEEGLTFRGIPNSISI
Experimental: The 5-lipoxygenase assay was carried out according to the method described by El Guendouz et al. The following formula was used to determine the percentage of inhibition action: Inhibition = [(A0 − A1)/A0) × 100]; where A0 is the absorbance of the control and A1 is the absorbance of the sample.

[6] = tested on: S. aureus ATCC 6538; experiment: Agar disc diffusion; assay type: cell-based, Staphylococcus aureus; conditions: 5 µL per 6 mm disc, 24 h, diameter including disc, chloramphenicol 30 μg/mL
Experimental: (§1) The Gram negative bacterium Escherichia coli DSM 1077, and the Gram positive Staphylococcus aureus ATCC 6538 and the methicillin-resistant S. aureus 15 (MRSA 15) were used in the present study. The bacterial strains were recovered from −80 °C in the culture medium Brain Heart Infusion (BHI, Oxoid, Basingstock, UK), when required agar (VWR, Radnor, Philadelphia, PA, USA) at 1.5% w/v.
(§2) The bacterial susceptibility to the combinations Ro:La:Ca at ratio 1:1:1, Ro:La:Ca at ratio 2/3:1/6:16, Ro:La:Ca at ratio 1/6:2/3:16, Ro:La:Ca at ratio 1/6:1/6:2/3, and the components linalool, 1,8 cineole, and camphor, were performed by the agar disc diffusion technique as previously described. Briefly, 100 µL of the bacterial suspension at an OD600nm 0.3–0.4 was inoculated in BHI agar, and sterile discs (∅ 6 mm) were distributed over the surface. A volume of 5 µL of each EO and the individual components 1,8-cineole (52.62 mg/mL), and linalool (16.13 mg/mL), were deposited in the center of each disc. The plates were incubated for 24 h. The diameter of the inhibition zone including the disc was measured. The assay was performed in triplicate (n = 6).

[7] = tested on: methicillin-resistant S. aureus 15 (MRSA 15); experiment: Agar disc diffusion; assay type: cell-based, Staphylococcus aureus; conditions: 5 µL per 6 mm disc, 24 h, diameter including disc, chloramphenicol 30 μg/mL
Experimental: as §1, §2

[8] = tested on: E. coli; parameters: method as in PMID 12485339; conditions: previous study; cited from earlier work
[9] = Superoxide anion radical scavenging (nonenzymatic PMS-NADH system); conditions: mean ± SD, triplicate
Experimental: Superoxide anion free radical inhibition ability was evaluated using a nonenzymatic PMS-NADH (phenazine methosulfate–nicotinamide adenine dinucleotide) system as previously reported. The inhibition quantification was performed as aforementioned.

[10] = tested on: tyrosinase; experiment: Tyrosinase inhibition assay (L-DOPA oxidation); assay type: biochemical; parameters: inhibition: dose or concentration left out as unconfirmed; conditions: Figure 4C; read-out: tyrosinase inhibition percentage, major terpenes
Experimental: (§3) The tyrosinase inhibition was carried out by the tyrosinase-dependent L-3,4-dihydroxyphenylalanine (L-DOPA) oxidation assay as previously described. The following formula was used to determine the percentage of inhibition action: Inhibition = [(A0 − A1)/A0) × 100]; with A0 as the absorbance of the control and A1 as the absorbance of the sample.

[11] = tested on: E. coli DSM 1077; experiment: Agar disc diffusion; assay type: cell-based, Escherichia coli; conditions: 5 µL per 6 mm disc, 24 h, diameter including disc, chloramphenicol 30 μg/mL
Experimental: as §1, §2

[12] = tested on: MRSA strains; parameters: method as in PMID 31461850; conditions: cited from earlier work
[13] = Hydrogen peroxide scavenging activity (colorimetric); parameters: key: ---: no activity; conditions: mean ± SD, triplicate
Experimental: The scavenging hydrogen peroxide was evaluated by a colorimetric assay according to Gupta and Sharma. […] Tests were carried out in triplicate.

[14] = tested on: E. coli DSM 1077 biofilm; experiment: Biofilm formation inhibition (crystal violet); assay type: cell-based, Escherichia coli; conditions: EO at 2.5, 5 and 10 μL/mL; chlorohexidine 0.2% v/v; 24 h; versus control culture; Figure 5
Experimental: as §1
(§4) The inhibition of biofilm formation was done using the crystal violet assay. Briefly, 150 µL of an overnight culture prepared as previously mentioned was centrifuged for 10 min at 4 °C. For the preparation of the bacterial suspension, 150 µL of BHI medium supplemented with EOs at the 2.5 µL/mL, 5 µL/mL and 10 µL/mL, chlorhexidine 0.2% (v/v), n-propanol (20%), was added to the centrifuged bacterial culture. Each well containing 180 µL of BHI supplemented with EOs at the appropriate concentration was inoculated with 20 µL of the previous bacterial suspension. The cultures with no EO and in the presence of chlorohexidine (0.2 %, v/v), were used as control. The culture was left to adhere and form a biofilm for 24 h. After this incubation time, non-adherent cells were eliminated and the wells were washed twice with PBS; then, the microplate was left to dry for 15–30 min. […] The absorbance was measured at 595 nm after 15–20 min incubation.

[15] = tested on: MRSA 15 biofilm; experiment: Biofilm formation inhibition (crystal violet); assay type: cell-based, Staphylococcus aureus; conditions: EO at 2.5, 5 and 10 μL/mL; chlorohexidine 0.2% v/v; 24 h; versus control culture; Figure 5
Experimental: as §1, §4

[16] = tested on: S. aureus ATCC 6538 biofilm; experiment: Biofilm formation inhibition (crystal violet); assay type: cell-based, Staphylococcus aureus; conditions: EO at 2.5, 5 and 10 μL/mL; chlorohexidine 0.2% v/v; 24 h; versus control culture; Figure 5
Experimental: as §1, §4

[17] = target: acetylcholinesterase (Homo sapiens, UniProt P22303); conditions: cited from earlier work
acetylcholinesterase, sequence (P22303 32-614, species assumed): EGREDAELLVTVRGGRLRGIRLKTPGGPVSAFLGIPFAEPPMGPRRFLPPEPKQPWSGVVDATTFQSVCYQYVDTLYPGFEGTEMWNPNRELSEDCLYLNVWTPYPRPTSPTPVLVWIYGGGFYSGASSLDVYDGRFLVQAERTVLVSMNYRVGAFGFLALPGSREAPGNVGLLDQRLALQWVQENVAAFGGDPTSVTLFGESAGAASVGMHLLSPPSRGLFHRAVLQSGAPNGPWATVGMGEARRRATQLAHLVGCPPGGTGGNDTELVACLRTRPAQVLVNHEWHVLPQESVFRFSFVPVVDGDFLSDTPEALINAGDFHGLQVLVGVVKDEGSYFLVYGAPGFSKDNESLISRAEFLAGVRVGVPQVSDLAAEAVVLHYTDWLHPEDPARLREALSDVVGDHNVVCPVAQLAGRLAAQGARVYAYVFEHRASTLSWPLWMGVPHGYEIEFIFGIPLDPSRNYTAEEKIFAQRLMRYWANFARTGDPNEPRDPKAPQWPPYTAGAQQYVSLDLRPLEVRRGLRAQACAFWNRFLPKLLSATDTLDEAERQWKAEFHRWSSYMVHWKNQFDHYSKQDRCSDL

[18] = target: T1, tyrosinase (Homo sapiens, UniProt P14679); experiment: Tyrosinase inhibition assay (L-DOPA oxidation); assay type: biochemical; parameters: inhibition: dose or concentration left out as unconfirmed; conditions: 50 mg/mL; Figure 4C
T1 sequence (P14679 19-529): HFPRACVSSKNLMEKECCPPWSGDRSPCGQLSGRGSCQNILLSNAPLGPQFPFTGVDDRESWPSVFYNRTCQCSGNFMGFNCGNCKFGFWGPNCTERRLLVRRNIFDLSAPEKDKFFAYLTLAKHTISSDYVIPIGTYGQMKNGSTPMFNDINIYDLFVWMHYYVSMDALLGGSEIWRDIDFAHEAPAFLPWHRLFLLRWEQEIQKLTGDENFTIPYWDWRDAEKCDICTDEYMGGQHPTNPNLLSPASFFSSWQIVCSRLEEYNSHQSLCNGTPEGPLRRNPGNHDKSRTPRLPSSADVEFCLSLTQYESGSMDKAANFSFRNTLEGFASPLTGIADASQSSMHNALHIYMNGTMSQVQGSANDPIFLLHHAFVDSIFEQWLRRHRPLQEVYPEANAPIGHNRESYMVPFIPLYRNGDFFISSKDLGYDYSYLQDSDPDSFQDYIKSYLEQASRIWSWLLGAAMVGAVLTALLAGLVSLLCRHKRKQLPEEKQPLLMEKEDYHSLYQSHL
Experimental: as §3

| Structure (SMILES) | Half Maximal Inhibitory Concentration IC50 NO. [1] | Half Maximal Inhibitory Concentration IC50 DPPH [3] | lipoxygenase inhibition / anti-inflammatory activity [5] | Half Maximal Inhibitory Concentration IC50 Superoxide [9] | inhibition [10] | Half Maximal Inhibitory Concentration IC50 H2O2 [13] | nitric oxide radical scavenging activity [1] | IC50 [17] | other results |
| --- | --- | --- | --- | --- | --- | --- | --- | --- | --- |
| C=CC(C)(O)CCC=C(C)C (stereo not drawn) [Linalool] | --- | 102.34 ± 3.13 ^b mg/mL | weak anti-inflammatory activity | 20.41 ± 1.47 ^b mg/mL | > 20% |  |  |  | Half Maximal Inhibitory Concentration IC50 NO. ([1]; listed as linalool): had no ability; Half Maximal Inhibitory Concentration IC50 α-Glucosidase ([2]; listed as linalool): did not have activity; inhibition zone against S. aureus [4]: 13.0 ± 4.2 mm; Inhibition Zone S. aureus ATCC 6538 [6]: 12.83 ± 0.47 ^b,c mm; Inhibition Zone S. aureus ATCC 6538 ([6]; listed as linalool): 12.83 ± 0.47 mm; Inhibition Zone Methicillin Resistant S. aureus 15 [7]: 13.83 ± 1.24 ^b mm; Inhibition Zone Methicillin Resistant S. aureus 15 ([7]; listed as linalool): 13.83 ± 1.24 mm; inhibition zone against E. coli [8]: 10.3 ± 0.5 mm; Inhibition Zone E. coli DSM 1077 [11]: 15.67 ± 0.23 ^a mm; Inhibition Zone E. coli DSM 1077 ([11]; listed as linalool): 15.67 ± 0.23 mm |
| C=CC(C)(CCC=C(C)C)OC(C)=O (stereo not drawn) [Linalyl acetate] | --- | 148.61 ± 1.28 ^a mg/mL |  | 18.23 ± 0.01 ^b mg/mL | > 20% | --- |  |  | Half Maximal Inhibitory Concentration IC50 NO. ([1]; listed as linalyl acetate): had no ability; Half Maximal Inhibitory Concentration IC50 α-Glucosidase ([2]; listed as linalyl acetate): did not have activity; MIC against MRSA strains [12]: 450.50 ± 0.00 μL/mL |
| [H]/N=C(\N/C(=N/[H])NCCCCCCNC(=N)NC(=N)Nc1ccc(Cl)cc1)Nc1ccc(Cl)cc1 [chlorohexidine] |  |  |  |  |  |  |  |  | biofilm formation of E. coli DSM 1077 [14]: reduced biofilm formation; biofilm formation of MRSA 15 [15]: reduced biofilm formation; biofilm formation of S. aureus ATCC 6538 [16]: induced the biofilm formation |
| CC1=CCC2CC1C2(C)C (stereo not drawn) [α-Pinene] |  |  |  |  |  | --- | had activity | 0.147 mM | tyrosinase inhibition percentage, major terpenes [18]: lowest ability |
| CC1=CC[C@@H](C(C)(C)O)CC1 [α-Terpineol] |  |  | weak anti-inflammatory activity |  | > 20% | --- | had activity | 8.43 mM | Half Maximal Inhibitory Concentration IC50 α-Glucosidase [2]: had no activity |

Reference: paper PMC8472154 (Molecules, 2021)
